Test results reported in US20120225909A1, “INDAZOLE ANALOG” (priority 2009, published 2012).
pEC50: −log10 of the molar value.

Key:
[1] = biological target: T1, human β1-adrenergic receptor (Homo sapiens, UniProt P08588); assay: Test Case 2-B: human β1-adrenergic receptor agonist activity; assay type: cell-based; conditions: for Emax: read-out: β1 receptor I.A.
T1 construct: expressed in transfected cells; host or cells: CHO (Chinese hamster ovary) cells, pcDNA3
Method: Measurement of Human β1-Adrenergic Receptor Agonist Activity
The human β1-adrenergic receptor agonist activity is measured by the same method as in Test Case 1-B using CHO (Chinese hamster ovary) cells transfected by a human β1 gene inserted in pcDNA3 (Invitrogen).

[2] = biological target: T2, human β2-adrenergic receptor (Homo sapiens, UniProt P07550); assay: Test Case 3-B: human β2-adrenergic receptor agonist activity; assay type: cell-based; conditions: for Emax: read-out: β2 receptor I.A.
T2 construct: expressed in transfected cells; host or cells: CHO (Chinese hamster ovary) cells, pcDNA3
T2 sequence (P07550 whole entry): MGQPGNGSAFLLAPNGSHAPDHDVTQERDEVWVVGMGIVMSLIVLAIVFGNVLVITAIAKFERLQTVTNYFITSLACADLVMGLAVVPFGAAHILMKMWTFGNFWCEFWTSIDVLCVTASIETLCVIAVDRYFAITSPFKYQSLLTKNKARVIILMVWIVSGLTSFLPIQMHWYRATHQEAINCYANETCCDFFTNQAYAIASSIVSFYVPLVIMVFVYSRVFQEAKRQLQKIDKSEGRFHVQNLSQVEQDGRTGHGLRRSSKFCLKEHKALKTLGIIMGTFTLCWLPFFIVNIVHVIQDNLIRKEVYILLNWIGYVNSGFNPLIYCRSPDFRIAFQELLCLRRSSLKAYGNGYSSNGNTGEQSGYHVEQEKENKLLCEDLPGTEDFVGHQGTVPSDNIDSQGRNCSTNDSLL
Method: Measurement of Human β2-Adrenergic Receptor Agonist Activity
The human β2-adrenergic receptor agonist activity is measured by the same method as in Test Case 1-B using CHO (Chinese hamster ovary) cells transfected by a human β2 gene inserted in pcDNA3 (Invitrogen).

[3] = biological target: T3, human α1A-adrenergic receptor (Homo sapiens, UniProt P35348); assay: Test Case 4-A: human α1A-adrenergic receptor agonist activity (HEK293, Ca flux, Fura-2); assay type: cell-based; design: expressed in transfected cells; host or cells: HEK293 cells, pcDNA3.1; conditions: for Emax: HEK293, read-out: α1A receptor I.A.
T3 sequence (P35348 1-466): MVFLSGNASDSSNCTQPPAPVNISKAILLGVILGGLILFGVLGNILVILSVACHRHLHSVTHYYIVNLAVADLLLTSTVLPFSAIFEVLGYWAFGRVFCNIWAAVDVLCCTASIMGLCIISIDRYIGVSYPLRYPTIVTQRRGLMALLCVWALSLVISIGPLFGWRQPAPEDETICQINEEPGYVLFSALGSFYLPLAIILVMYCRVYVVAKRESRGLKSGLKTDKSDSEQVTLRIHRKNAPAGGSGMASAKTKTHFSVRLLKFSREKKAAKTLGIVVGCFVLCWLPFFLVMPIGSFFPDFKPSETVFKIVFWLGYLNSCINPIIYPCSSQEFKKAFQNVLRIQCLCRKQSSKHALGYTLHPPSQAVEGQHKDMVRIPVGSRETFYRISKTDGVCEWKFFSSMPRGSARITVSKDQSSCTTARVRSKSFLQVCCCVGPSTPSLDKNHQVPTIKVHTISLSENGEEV
Method: Measurement of Human α1A-Adrenergic Receptor Agonist Activity
The human α1A-adrenergic receptor agonist activity is measured using HEK293 cells transfected by a human α1A gene inserted in pcDNA3.1 (Invitrogen). […] After loading for 30 minutes in a CO2 incubator, the excess Fura-2AM is removed by washing twice with assay buffer. After preparing the centrifuged cells to make 5×10^6 cells/mL by assay buffer, 80 μL/well is dispensed into 96-well UV plates (made by Corning) to make cell plates. Sample plates with the test compound diluted 10-fold by assay buffer from 10^−5 to 10^−12 M and cell plates are set in an FDSS4000 (made by Hamamatsu Photonics). After preincubating for 180 seconds, measurement of fluorescence intensity (excitation wavelength 340 nm, 380 nm, measurement wavelength 500 nm) is begun at 2-second intervals. After approximately 30 seconds of measurement, 20 μL of test sample from a sample plate is added to the cell plate, and measurement is continued for another 270 seconds. The Ca flux caused by the test compound is calculated taking the difference in the maximum value of the fluorescence intensity ratio at 340 nm and 380 nm after adding the test compound and the fluorescence intensity ratio before adding the test compound as the peak height.

Male C57BL/6 Cr mice = assay: Test Case 10: mouse piloerection test; assay type: in vivo; conditions: 10 mg/kg i.v., Score 0
Method: Male C57BL/6 Cr mice (Japan SLC) are used. The dissolved compound is administered rapidly via a caudal vein. The animal is placed on the observation stand 5, 15, 30, and 60 minutes after administration, and the state of piloerection is observed. The state of piloerection is evaluated by the following 7-level scoring system according to the examples by the method of Irwin (Psychopharmacologia 1968, 13; 222-257).
Scoring system: “Score 0”: No piloerection at all; “Score 1”: Slight piloerection (piloerection on part of the body such as the back or neck); “Score 2”: Moderate piloerection (piloerection over the entire body); “Score 3”: Marked piloerection (piloerection over the entire body, conspicuous to the extent that the skin can be seen).
“Score 0.5” is between “Score 0” and “Score 1” “Score 1.5” is between […]. “Score 2.5” is between “Score 2” and “Score 3.”

[4] = biological target: T4, human β3-adrenergic receptor (Homo sapiens, UniProt P13945); assay: Test Case 1-B: human β3-adrenergic receptor agonist activity (cAMP-Screen, 96-well); assay type: cell-based; conditions: for Emax: 0.5 h, read-out: β3 receptor I.A.; for pEC50: CHO cells, cAMP
T4 construct: A full-length human β3 gene is obtained from a human genomic library (made by Clontech) using this as the probe; expressed in transfected cells; host or cells: CHO (Chinese hamster ovary) cells, pcDNA3
T4 sequence (P13945 whole entry): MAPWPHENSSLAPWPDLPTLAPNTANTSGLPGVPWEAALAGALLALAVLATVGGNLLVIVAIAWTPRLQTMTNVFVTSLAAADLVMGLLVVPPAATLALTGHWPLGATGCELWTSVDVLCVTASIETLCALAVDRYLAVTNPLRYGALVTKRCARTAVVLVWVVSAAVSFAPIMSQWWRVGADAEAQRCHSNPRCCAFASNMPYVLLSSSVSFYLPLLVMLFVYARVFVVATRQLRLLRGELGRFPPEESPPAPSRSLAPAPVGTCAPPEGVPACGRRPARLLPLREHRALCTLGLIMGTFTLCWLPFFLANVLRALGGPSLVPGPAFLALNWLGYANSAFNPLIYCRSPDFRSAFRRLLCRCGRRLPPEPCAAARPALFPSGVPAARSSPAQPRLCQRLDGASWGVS
Method: Measurement of Human β3-Adrenergic Receptor Agonist Activity
The human β3-adrenergic receptor agonist activity is measured using CHO (Chinese hamster ovary) cells transfected by a human β3 gene inserted in pcDNA3 (Invitrogen). […] A full-length human β3 gene is obtained from a human genomic library (made by Clontech) using this as the probe. These cells are cultured in Ham's F-12 medium containing 10% fetal calf serum and 400 μg/mL genectin (Invitrogen). These cells are sown in 96-well plates to make 2×10^4 cells/well. After culturing for approximately 20 hours, they are allowed to stand for 15 minutes in 80 μL of serum-free Ham's F-12 medium. After first dissolving the test compound by DMSO, it is serially diluted by Ham's F-12 containing 100 mmol/L HEPES and 1 mmol/L isobutylmethylxanthine, and 20 μL is added to the cells. After culturing for 30 minutes, the medium is removed, and 0.1 mL of the assay/lysis buffer contained in the cAMP-Screen kit (made by Applied Bioscience) is added and incubated for 30 minutes at 37° C. The cAMP in this cell lysate is assayed by the above cAMP-Screen kit.

T1 sequence (P08588 whole entry): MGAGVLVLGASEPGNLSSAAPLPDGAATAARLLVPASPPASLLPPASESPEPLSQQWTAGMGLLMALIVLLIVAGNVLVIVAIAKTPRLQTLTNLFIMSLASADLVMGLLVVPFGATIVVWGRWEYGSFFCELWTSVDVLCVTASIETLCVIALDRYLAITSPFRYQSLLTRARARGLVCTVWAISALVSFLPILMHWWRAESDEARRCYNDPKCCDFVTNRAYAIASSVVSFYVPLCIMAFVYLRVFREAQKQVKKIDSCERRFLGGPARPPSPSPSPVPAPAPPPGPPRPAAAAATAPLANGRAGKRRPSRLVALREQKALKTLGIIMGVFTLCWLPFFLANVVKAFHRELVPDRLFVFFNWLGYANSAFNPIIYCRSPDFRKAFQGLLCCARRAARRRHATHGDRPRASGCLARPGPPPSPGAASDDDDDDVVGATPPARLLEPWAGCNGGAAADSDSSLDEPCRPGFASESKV

Row | Structure (SMILES) | Emax [1] [%] | Emax [2] [%] | Emax [3] [%] | number of experimental animals matching Score 0 (no piloerection) (Male C57BL/6 Cr mice; n=4, observation time 5 min) | number of experimental animals matching Score 0 (no piloerection) (Male C57BL/6 Cr mice; n=4, observation time 15 min) | number of experimental animals matching Score 0 (no piloerection) (Male C57BL/6 Cr mice; n=4, observation time 30 min) | number of experimental animals matching Score 0 (no piloerection) (Male C57BL/6 Cr mice; n=4, observation time 60 min) | Emax [4] [%] | pEC50 ([4]; Test Case 1-B) | β1 receptor I.A. ([1]; Test Case 2-B, maximum response of isoproterenol = 100%) [%] | β2 receptor I.A. ([2]; Test Case 3-B, maximum response of isoproterenol = 100%) [%] | α1A receptor I.A. ([3]; Test Case 4-A, maximum response of norepinephrine = 100%, Table 4) [%] | β3 receptor I.A. ([4]; Test Case 1-B, maximum response of isoproterenol = 100%) [%]
1 | COc1n[nH]c2cc(OCCNC[C@H](O)c3cccc(NS(=O)(=O)c4cc(N)ccc4F)c3)ccc12 [ex6, (R)-5-amino-2-fluoro-N-(3-(1-hydroxy-2-(2-(3-methoxyindazol-6-yloxy)ethylamino)ethyl)phenyl)benzenesulfonamide] | 10 | 7 | 0 | 4 | 4 | 4 | 4 | 84 | 9.15 | – | – | – | –
2 | COc1n[nH]c2cc(OCCNC[C@H](O)c3cccc(NS(=O)(=O)C4CC4)c3)ccc12 [ex17, (R)-N-( ? -(1-hydroxy-2-(2-(3-methoxyindazol-6-yloxy)ethylamino)ethyl)phenyl)cy ?] | 1 | 12 | 13 | – | – | – | – | 70 | 7.41 | – | – | – | –
3 | O=S(=O)(Nc1cccc([C@@H](O)CNCCOc2ccc3c(Cl)n[nH]c3c2)c1)C1CC1 [ex152] | 3 | 15 | 8 | – | – | – | – | 104 | 7.66 | – | – | – | –
4 | Cc1n[nH]c2cc(OCCNC[C@H](O)c3cccc(NS(=O)(=O)c4ccccc4O)c3)ccc12 [ex241, (R)-2-hydroxy-N-(3-(1-hydroxy-2-(2-(3-methylindazol-6-yloxy)ethylamino)ethyl)phenyl)benzenesulfonamide] | 9 | 8 | 0 | – | – | – | – | 94 | 7.37 | – | – | – | –
5 | Cc1n[nH]c2cc(OCCNC[C@H](O)c3cccc(NS(=O)(=O)c4cccc(O)c4)c3)ccc12 [ex236, (R)-3-hydroxy-N-(3-(1-hydroxy-2-(2-(3-methylindazol-6-yloxy)ethylamino)ethyl)phenyl)benzenesulfonamide] | 11 | 5 | 0 | – | – | – | – | 58 | 9.00 | – | – | – | –
6 | COc1n[nH]c2cc(OCCNC[C@H](O)c3cccc(NS(=O)(=O)c4cccc(Cl)c4)c3)ccc12 [ex13, (R)-3-chloro-N-(3-(1-hydroxy-2-(2-( ? - methoxyindazol-6-yloxy)ethylamino)ethyl)phenyl) benzenesulfonamide] | 4 | -4 | 0 | – | – | – | – | 82 | 8.03 | – | – | – | –
7 | Cc1n[nH]c2cc(OCCNC[C@H](O)c3cccc(NS(=O)(=O)c4ccccc4N)c3)ccc12 [ex53, (R)-2-amino-N-(3-(1-hydroxy-2-(2-(3-methylindazol-6-yloxy)ethylamino)ethyl)phenyl) benzenesulfonamide] | 14 | 2 | 0 | – | – | – | – | 98 | 8.39 | – | – | – | –
8 | CC(C)c1n[nH]c2cc(OCCNC[C@H](O)c3cccc(NS(=O)(=O)c4cccc(N)c4)c3)ccc12 [ex231, (R)-3-amino-N-(3-(1-hydroxy- ? -(2-( ? iso-propylindazol- ? - yloxy)ethylamino)ethyl)phenyl) benzene ? fonamide] | 18 | 3 | 0 | – | – | – | – | 124 | 9.70 | – | – | – | –
9 | O=S(=O)(Nc1cccc([C@@H](O)CNCCOc2ccc3c(C(F)(F)F)n[nH]c3c2)c1)C1CC1 [ex181, (R)-N-(3-(1-hydroxy-2-(2-(3-(trifluoromethyl)indazol-6-yloxy)ethylamino)ethyl)phenyl) cyclopropane-sulfonamide] | 1 | 8 | 4 | – | – | – | – | 80 | 7.80 | – | – | – | –
10 | COc1n[nH]c2cc(OCCNC[C@H](O)c3cccc(NS(=O)(=O)c4cccc(Cl)c4)c3)ccc12 [ex42, (R)-3-chloro-N-(3-(1-hydroxy-2-(2-(3-methoxyindazol-6-yloxy)ethylamino)ethyl)phenyl) benzenesulfonamide] | – | – | – | – | – | – | – | – | 8.42 | 4 | 0 | 0 | 83
11 | CCc1n[nH]c2cc(OCCNC[C@H](O)c3cccc(NS(=O)(=O)c4cccc(C)c4)c3)ccc12 [ex126, (R)-N-(3-(2-(2-(3-ethylindazol-6-yloxy)ethylamino)-1-hydroxyethyl)phenyl)-3-methylbenzene-sulfonamide] | 8 | 1 | 0 | – | – | – | – | 85 | 7.85 | – | – | – | –
12 | Cc1cccc(S(=O)(=O)Nc2cccc([C@@H](O)CNCCOc3ccc4c(C)n[nH]c4c3)c2)c1 [ex49, (R)-N-(3-(1-hydroxy-2-(2-(3-methylindazol-6-yloxy)ethylamino)ethyl)phenyl)-3-methyl] | 10 | -3 | 0 | – | – | – | – | 96 | 8.60 | – | – | – | –
13 | Nc1cccc(S(=O)(=O)Nc2cccc([C@@H](O)CNCCOc3ccc4c(Cl)n[nH]c4c3)c2)c1 [ex153, (R)- ? -amino-N-(3-(2-(2-(3-chloroindazol-6-yloxy)-ethylamino)-1-hydroxyethyl)-phenyl) benzenesulfonamide] | 12 | 13 | 0 | – | – | – | – | 95 | 9.66 | – | – | – | –
